Source: the supplement of paper PMC10733146

What was measured:
Assay in all cases: viability relative to DMSO control (fraction); higher = less drug effect (more viable cells)
Settings in all cases: 48 h
Pralatrexate = compound: C#CCC(Cc1cnc2nc(N)nc(N)c2n1)c1ccc(C(=O)N[C@@H](CCC(=O)O)C(=O)O)cc1 [Pralatrexate]
Method in brief: (§1)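 Cells were incubated for 48 h at 37 °C and 5% CO2 in RPMI-1640 with penicillin/streptomycin, L-glutamine and human serum, at 4 × 10^4 cells per well in 384-well plates with compounds pre-plated at five concentrations, one well each. These were primary mononuclear tumour cells, fresh or cryopreserved, Ficoll-isolated from blood or bone marrow or obtained from processed lymph node. Viability values are CellTiter-Glo luminescence relative to the median of 16 inner DMSO wells.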

ONO-4059 = compound: CC#CC(=O)N1CC[C@@H](n2c(=O)n(-c3ccc(Oc4ccccc4)cc3)c3c(N)ncnc32)C1 [ONO-4059]
Method in brief: as §1

[1] = compound: CC(C)(C)OC(=O)Nc1ccc(-c2cc(C(=O)NCCCCCCC(=O)NO)no2)cc1
Method in brief: as §1

Quizartinib = compound: CC(C)(C)c1cc(NC(=O)Nc2ccc(-c3cn4c(n3)sc3cc(OCCN5CCOCC5)ccc34)cc2)no1 [Quizartinib]
Method in brief: as §1

Bortezomib = compound: CC(C)C[C@H](NC(=O)[C@H](Cc1ccccc1)NC(=O)c1cnccn1)B(O)O [Bortezomib]
Method in brief: as §1

EPZ-5676 = compound: CC(C)N(C[C@H]1O[C@@H](n2cnc3c(N)ncnc32)[C@H](O)[C@@H]1O)[C@H]1C[C@@H](CCc2nc3cc(C(C)(C)C)ccc3[nH]2)C1 [EPZ-5676]
Method in brief: as §1

BI6727 = compound: CC[C@@H]1C(=O)N(C)c2cnc(Nc3ccc(C(=O)N[C@H]4CC[C@H](N5CCN(CC6CC6)CC5)CC4)cc3OC)nc2N1C(C)C [BI6727]
Method in brief: as §1

Birinapant = compound: CC[C@H](NC(=O)[C@H](C)NC)C(=O)N1C[C@@H](O)C[C@H]1Cc1c(-c2[nH]c3cc(F)ccc3c2C[C@@H]2C[C@H](O)CN2C(=O)[C@H](CC)NC(=O)[C@H](C)NC)[nH]c2cc(F)ccc12 [Birinapant]
Method in brief: as §1

Ribociclib = compound: CN(C)C(=O)c1cc2cnc(Nc3ccc(N4CCNCC4)cn3)nc2n1C1CCCC1 [Ribociclib]
Method in brief: as §1

Obatoclax mesylate = compound: COC1=CC(c2cc3ccccc3[nH]2)=N/C1=C\c1[nH]c(C)cc1C [Obatoclax mesylate]
Method in brief: as §1

Nelarabine = compound: COc1nc(N)nc2c1ncn2[C@@H]1O[C@H](CO)[C@@H](O)[C@@H]1O [Nelarabine]
Method in brief: as §1

Tozasertib = compound: Cc1cc(Nc2cc(N3CCN(C)CC3)nc(Sc3ccc(NC(=O)C4CC4)cc3)n2)n[nH]1 [Tozasertib]
Method in brief: as §1

8-Azaguanin = compound: Nc1nc2n[nH]nc2c(=O)[nH]1 [8-Azaguanin]
Method in brief: as §1

Vorinostat = compound: O=C(CCCCCCC(=O)Nc1ccccc1)NO [Vorinostat]
Method in brief: as §1

TMP269 = compound: O=C(NCC1(c2nc(-c3ccccc3)cs2)CCOCC1)c1cccc(-c2noc(C(F)(F)F)n2)c1 [TMP269]
Method in brief: as §1

primary ALL patient cells (S088) showed a viability (Pralatrexate; 0.024 µM) of 1.07, a viability (Pralatrexate; 0.12 µM) of 0.937 and a viability (Pralatrexate; 0.6 µM) of 0.927. It also gave a viability (Pralatrexate; 3 µM) of 0.991, a viability (Pralatrexate; 15 µM) of 0.917 and a viability (ONO-4059; 0.0016 µM) of 1.03. The viability (ONO-4059; 0.008 µM) was 1.14, the viability (ONO-4059; 0.04 µM) was 1.07 and the viability (ONO-4059; 0.2 µM) was 1.04. For the same test system, the viability (ONO-4059; 1 µM) was 1.02, the viability ([1]; 0.024 µM) was 0.612 and the viability ([1]; 0.12 µM) was 0.528. The viability ([1]; 0.6 µM) was 0.264, the viability ([1]; 3 µM) was 0.127 and the viability ([1]; 15 µM) was 0.063. For the same test system, the viability (Quizartinib; 0.016 µM) was 0.809, the viability (Quizartinib; 0.08 µM) was 0.765 and the viability (Quizartinib; 0.4 µM) was 0.775. The viability (Quizartinib; 2 µM) was 0.741, the viability (Quizartinib; 10 µM) was 0.676 and the viability (Bortezomib; 0.008 µM) was 1.02. It also gave a viability (Bortezomib; 0.04 µM) of 0.948, a viability (Bortezomib; 0.2 µM) of 0.906 and a viability (Bortezomib; 1 µM) of 0.92. It also gave a viability (Bortezomib; 5 µM) of 0.916, a viability (EPZ-5676; 0.0032 µM) of 0.74 and a viability (EPZ-5676; 0.016 µM) of 0.922. The viability (EPZ-5676; 0.08 µM) was 0.812, the viability (EPZ-5676; 0.4 µM) was 0.874 and the viability (EPZ-5676; 2 µM) was 0.917. For the same test system, the viability (BI6727; 0.024 µM) was 0.796, the viability (BI6727; 0.12 µM) was 0.833 and the viability (BI6727; 0.6 µM) was 0.634. The viability (BI6727; 3 µM) was 0.358, the viability (BI6727; 15 µM) was 0.078 and the viability (Birinapant; 0.0008 µM) was 0.577. It also gave a viability (Birinapant; 0.004 µM) of 0.477, a viability (Birinapant; 0.02 µM) of 0.379 and a viability (Birinapant; 0.1 µM) of 0.316. For the same test system, the viability (Birinapant; 0.5 µM) was 0.229, the viability (Ribociclib; 0.024 µM) was 0.713 and the viability (Ribociclib; 0.12 µM) was 0.679. The viability (Ribociclib; 0.6 µM) was 0.621, the viability (Ribociclib; 3 µM) was 0.487 and the viability (Ribociclib; 15 µM) was 0.357. The viability (Obatoclax mesylate; 0.024 µM) was 0.977, the viability (Obatoclax mesylate; 0.12 µM) was 0.804 and the viability (Obatoclax mesylate; 0.6 µM) was 0.582. It also gave a viability (Obatoclax mesylate; 3 µM) of 0.262, a viability (Obatoclax mesylate; 15 µM) of 0.0738 and a viability (Nelarabine; 0.024 µM) of 0.974. It also gave a viability (Nelarabine; 0.12 µM) of 0.98, a viability (Nelarabine; 0.6 µM) of 0.967 and a viability (Nelarabine; 3 µM) of 0.886. For the same test system, the viability (Nelarabine; 15 µM) was 0.75, the viability (Tozasertib; 0.024 µM) was 0.727 and the viability (Tozasertib; 0.12 µM) was 0.653. It also gave a viability (Tozasertib; 0.6 µM) of 0.501, a viability (Tozasertib; 3 µM) of 0.382 and a viability (Tozasertib; 15 µM) of 0.286. The viability (8-Azaguanin; 0.032 µM) was 0.783, the viability (8-Azaguanin; 0.16 µM) was 0.765 and the viability (8-Azaguanin; 0.8 µM) was 0.346. The viability (8-Azaguanin; 4 µM) was 0.269, the viability (8-Azaguanin; 20 µM) was 0.174 and the viability (Vorinostat; 0.016 µM) was 0.991. For the same test system, the viability (Vorinostat; 0.08 µM) was 0.777, the viability (Vorinostat; 0.4 µM) was 0.366 and the viability (Vorinostat; 2 µM) was 0.157. The viability (Vorinostat; 10 µM) was 0.109, the viability (TMP269; 0.024 µM) was 0.709 and the viability (TMP269; 0.12 µM) was 0.619. The viability (TMP269; 0.6 µM) was 0.674, the viability (TMP269; 3 µM) was 0.674 and the viability (TMP269; 15 µM) was 0.729.
In the case of primary AML patient cells (S002), the viability (Pralatrexate; 0.024 µM) was 1.02, the viability (Pralatrexate; 0.12 µM) was 0.828 and the viability (Pralatrexate; 0.6 µM) was 0.79. For the same test system, the viability (Pralatrexate; 3 µM) was 1.07, the viability (Pralatrexate; 15 µM) was 0.928 and the viability (ONO-4059; 0.0016 µM) was 1.07. It also gave a viability (ONO-4059; 0.008 µM) of 1.08, a viability (ONO-4059; 0.04 µM) of 0.919 and a viability (ONO-4059; 0.2 µM) of 0.971. The viability (ONO-4059; 1 µM) was 0.997, the viability ([1]; 0.024 µM) was 1.04 and the viability ([1]; 0.12 µM) was 0.659. For the same test system, the viability ([1]; 0.6 µM) was 0.419, the viability ([1]; 3 µM) was 0.307 and the viability ([1]; 15 µM) was 0.272. For the same test system, the viability (Quizartinib; 0.016 µM) was 1.11, the viability (Quizartinib; 0.08 µM) was 1.07 and the viability (Quizartinib; 0.4 µM) was 1.06. The viability (Quizartinib; 2 µM) was 1.18, the viability (Quizartinib; 10 µM) was 1.07 and the viability (Bortezomib; 0.008 µM) was 0.958. The viability (Bortezomib; 0.04 µM) was 1.03, the viability (Bortezomib; 0.2 µM) was 0.959 and the viability (Bortezomib; 1 µM) was 0.953. For the same test system, the viability (Bortezomib; 5 µM) was 0.986, the viability (EPZ-5676; 0.0032 µM) was 0.98 and the viability (EPZ-5676; 0.016 µM) was 1.08. The viability (EPZ-5676; 0.08 µM) was 0.936, the viability (EPZ-5676; 0.4 µM) was 1.01 and the viability (EPZ-5676; 2 µM) was 1.04. For the same test system, the viability (BI6727; 0.024 µM) was 0.839, the viability (BI6727; 0.12 µM) was 0.702 and the viability (BI6727; 0.6 µM) was 0.553. For the same test system, the viability (BI6727; 3 µM) was 0.343, the viability (BI6727; 15 µM) was 0.263 and the viability (Birinapant; 0.0008 µM) was 0.8. For the same test system, the viability (Birinapant; 0.004 µM) was 0.783, the viability (Birinapant; 0.02 µM) was 0.66 and the viability (Birinapant; 0.1 µM) was 0.478. The viability (Birinapant; 0.5 µM) was 0.322, the viability (Ribociclib; 0.024 µM) was 0.981 and the viability (Ribociclib; 0.12 µM) was 1.1. For the same test system, the viability (Ribociclib; 0.6 µM) was 1.03, the viability (Ribociclib; 3 µM) was 1.06 and the viability (Ribociclib; 15 µM) was 0.736. For the same test system, the viability (Obatoclax mesylate; 0.024 µM) was 0.904, the viability (Obatoclax mesylate; 0.12 µM) was 0.841 and the viability (Obatoclax mesylate; 0.6 µM) was 0.497. For the same test system, the viability (Obatoclax mesylate; 3 µM) was 0.322, the viability (Obatoclax mesylate; 15 µM) was 0.142 and the viability (Nelarabine; 0.024 µM) was 1.07. It also gave a viability (Nelarabine; 0.12 µM) of 0.999, a viability (Nelarabine; 0.6 µM) of 0.946 and a viability (Nelarabine; 3 µM) of 0.961. It also gave a viability (Nelarabine; 15 µM) of 0.779, a viability (Tozasertib; 0.024 µM) of 1.09 and a viability (Tozasertib; 0.12 µM) of 0.779. It also gave a viability (Tozasertib; 0.6 µM) of 0.738, a viability (Tozasertib; 3 µM) of 0.647 and a viability (Tozasertib; 15 µM) of 0.474. For the same test system, the viability (8-Azaguanin; 0.032 µM) was 1.06, the viability (8-Azaguanin; 0.16 µM) was 1.01 and the viability (8-Azaguanin; 0.8 µM) was 1.01. The viability (8-Azaguanin; 4 µM) was 0.827, the viability (8-Azaguanin; 20 µM) was 0.376 and the viability (Vorinostat; 0.016 µM) was 1.08. The viability (Vorinostat; 0.08 µM) was 0.947, the viability (Vorinostat; 0.4 µM) was 0.663 and the viability (Vorinostat; 2 µM) was 0.291. For the same test system, the viability (Vorinostat; 10 µM) was 0.24, the viability (TMP269; 0.024 µM) was 0.995 and the viability (TMP269; 0.12 µM) was 1.03. It also gave a viability (TMP269; 0.6 µM) of 1.02, a viability (TMP269; 3 µM) of 0.83 and a viability (TMP269; 15 µM) of 0.747.
